Biological target: T1, UGT94D1 (Sesamum indicum, UniProt A0A6I9T8N3, F119I/D188P)
T1 construct: gene LOC105161042; full ORF, synthetic codon-optimised gene; Ni-NTA purified and desalted
Test: UPLC glucosylation assay, […] h turnover
Format: biochemical
Settings: 0.5 mM Reb D, 5 mM UDPG, 10 mM MnCl2, 50 mM Tris-HCl pH 8.0, 35 °C

T1 sequence (A0A6I9T8N3 entry or part of it F119I/D188P): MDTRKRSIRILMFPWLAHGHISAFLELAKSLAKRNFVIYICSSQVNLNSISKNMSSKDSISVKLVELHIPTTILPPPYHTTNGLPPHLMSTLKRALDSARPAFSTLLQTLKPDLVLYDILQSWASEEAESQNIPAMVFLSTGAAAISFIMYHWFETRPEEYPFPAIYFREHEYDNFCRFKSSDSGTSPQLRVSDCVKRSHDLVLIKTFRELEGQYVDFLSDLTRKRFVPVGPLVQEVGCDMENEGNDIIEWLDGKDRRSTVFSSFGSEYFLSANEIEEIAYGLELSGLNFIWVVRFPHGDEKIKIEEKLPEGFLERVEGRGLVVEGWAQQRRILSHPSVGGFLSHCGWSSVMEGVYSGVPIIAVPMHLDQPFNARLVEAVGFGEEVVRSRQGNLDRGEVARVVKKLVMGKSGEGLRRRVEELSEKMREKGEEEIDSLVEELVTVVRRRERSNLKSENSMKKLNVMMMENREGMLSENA

**Q.** For C=C1C[C@@]23CC[C@H]4[C@@](C)(CCC[C@@]4(C)C(=O)O[C@@H]4O[C@H](CO)[C@@H](O)[C@H](O)[C@H]4O[C@@H]4O[C@H](CO)[C@@H](O)[C@H](O)[C@H]4O)[C@@H]2CC[C@]1(O[C@@H]1O[C@H](CO)[C@@H](O)[C@H](O[C@@H]2O[C@H](CO)[C@@H](O)[C@H](O)[C@H]2O)[C@H]1O[C@@H]1O[C@H](CO)[C@@H](O)[C@H](O)[C@H]1O)C3 [rebaudioside D], which relative activity is on record?
**A.** catalytic activities of mutants F119I/D188P and F119P/D188P were further improved

From article PMC10875103, “Selective synthesis of rebaudioside M2 through structure-guided engineering of glycosyltransferase UGT94D1” (Frontiers in Bioengineering and Biotechnology, 2024)
